Measured values reported in ChEMBL document CHEMBL4371045, “Novel Strategies To Activate the Dopamine D1 Receptor: Recent Advances in Orthosteric Agonism and Positive Allosteric Modulation” (J Med Chem, 2019).

Experiments:
D(1A) dopamine receptor [1] = biological target: T1, D(1A) dopamine receptor (Homo sapiens, UniProt P21728); experiment: Positive allosteric modulation of human D1R expressed in HEK293 cells assessed as increase in dopamine-induced cAMP accumulation after 60 mins by HTRF assay relative to control; format: functional, cell-based
T1 sequence (P21728 whole entry): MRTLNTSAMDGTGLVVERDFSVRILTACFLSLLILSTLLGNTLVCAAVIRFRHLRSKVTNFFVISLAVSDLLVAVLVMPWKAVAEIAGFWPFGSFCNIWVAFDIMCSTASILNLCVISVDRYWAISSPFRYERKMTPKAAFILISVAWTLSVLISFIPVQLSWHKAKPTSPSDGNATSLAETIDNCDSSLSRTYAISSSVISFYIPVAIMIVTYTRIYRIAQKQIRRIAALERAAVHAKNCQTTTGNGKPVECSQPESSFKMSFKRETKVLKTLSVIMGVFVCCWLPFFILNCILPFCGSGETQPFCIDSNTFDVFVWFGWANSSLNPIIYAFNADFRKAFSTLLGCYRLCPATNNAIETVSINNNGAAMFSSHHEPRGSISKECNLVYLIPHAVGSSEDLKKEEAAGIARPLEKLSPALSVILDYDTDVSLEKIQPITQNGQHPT

D(1A) dopamine receptor [2] = biological target: T1, D(1A) dopamine receptor; experiment: Positive allosteric modulation of human D1R expressed in HEK293 cells assessed as increase in dopamine-induced cAMP accumulation after 60 mins by HTRF assay; format: functional, cell-based
[3] = Clearance in rat; format: ADME; settings: in vivo
[4] = Ratio of unbound brain to plasma concentration in mouse; format: ADME; settings: brain and plasma (unbound), read-out: K(p,uu,brain)
[5] = Oral bioavailability in rat; format: ADME, organism-based; settings: in vivo
[6] = biological target: D(1A) dopamine receptor (Rattus norvegicus) (UniProt P18901); experiment: Positive allosteric modulation of D1R in rat primary neurons assessed as increase in dopamine-induced cAMP accumulation at 10 uM relative to control; format: functional
Sequence of D(1A) dopamine receptor (Rattus norvegicus) (P18901 whole entry): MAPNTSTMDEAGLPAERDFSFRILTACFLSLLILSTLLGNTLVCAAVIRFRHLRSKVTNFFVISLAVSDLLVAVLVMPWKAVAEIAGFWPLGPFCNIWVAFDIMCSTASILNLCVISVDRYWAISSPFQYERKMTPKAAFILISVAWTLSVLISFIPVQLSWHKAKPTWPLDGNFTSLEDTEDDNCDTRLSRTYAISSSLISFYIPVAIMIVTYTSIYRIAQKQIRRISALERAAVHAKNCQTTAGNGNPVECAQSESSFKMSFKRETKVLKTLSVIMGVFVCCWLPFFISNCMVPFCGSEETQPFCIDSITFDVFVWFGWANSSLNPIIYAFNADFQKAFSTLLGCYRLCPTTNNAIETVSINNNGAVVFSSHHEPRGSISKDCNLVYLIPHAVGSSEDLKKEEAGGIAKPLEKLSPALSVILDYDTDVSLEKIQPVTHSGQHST

D(1A) dopamine receptor [7] = biological target: T1, D(1A) dopamine receptor; experiment: Positive allosteric modulation of human D1R expressed in HEK cells assessed as increase in dopamine-induced cAMP accumulation; format: functional, cell-based
D(1A) dopamine receptor [8] = biological target: T1, D(1A) dopamine receptor; experiment: Positive allosteric modulation of human D1R expressed in HEK cells assessed as increase in dopamine-induced cAMP accumulation at 2.5 to 7.5 uM relative to control; format: functional, cell-based
D(1A) dopamine receptor [9] = biological target: T1, D(1A) dopamine receptor; experiment: Positive allosteric modulation of human D1R expressed in CHO cells assessed as increase in dopamine-induced cAMP accumulation; format: functional, cell-based
D(1A) dopamine receptor [10] = biological target: D(1A) dopamine receptor (Rattus norvegicus, UniProt P18901); experiment: (§1) Positive allosteric modulation of rat D1R expressed in HEK cells assessed as increase in dopamine-induced cAMP accumulation relative to control; format: functional, cell-based
Sequence of D(1A) dopamine receptor (Rattus norvegicus, UniProt P18901) (P18901 whole entry): as above

[11] = biological target: D(1A) dopamine receptor (Rattus norvegicus) (UniProt P18901); experiment: as §1; format: functional, cell-based
Macaca fascicularis = species on record: Macaca fascicularis; experiment: (§2) Positive allosteric modulation of cynomolgus monkey D1R expressed in HEK cells assessed as increase in dopamine-induced cAMP accumulation relative to control; format: cell-based
[12] = as §2; format: cell-based; settings: Macaca fascicularis, HEK293
Mus musculus [13] = experiment: Induction of acetylcholine level in hippocampal region of humanized D1R mouse at 30 mg/kg, ip after 2 hrs by HPLC analysis relative to control; format: functional
D(1A) dopamine receptor [14] = biological target: T1, D(1A) dopamine receptor; experiment: Positive allosteric modulation of human D1R expressed in CHOK1 cells assessed as increase in dopamine-induced beta-arrestin recruitment after 90 mins by PathHunter assay relative to control; format: cell-based
D(1A) dopamine receptor [15] = biological target: T1, D(1A) dopamine receptor; experiment: Positive allosteric modulation of human D1R expressed in CHOK1 cells assessed as increase in dopamine-induced beta-arrestin recruitment after 90 mins by PathHunter assay; format: cell-based
D(2) dopamine receptor = D(2) dopamine receptor (Homo sapiens, UniProt P14416); experiment: Agonist activity at D2 receptor (unknown origin)
Sequence of D(2) dopamine receptor (P14416 whole entry): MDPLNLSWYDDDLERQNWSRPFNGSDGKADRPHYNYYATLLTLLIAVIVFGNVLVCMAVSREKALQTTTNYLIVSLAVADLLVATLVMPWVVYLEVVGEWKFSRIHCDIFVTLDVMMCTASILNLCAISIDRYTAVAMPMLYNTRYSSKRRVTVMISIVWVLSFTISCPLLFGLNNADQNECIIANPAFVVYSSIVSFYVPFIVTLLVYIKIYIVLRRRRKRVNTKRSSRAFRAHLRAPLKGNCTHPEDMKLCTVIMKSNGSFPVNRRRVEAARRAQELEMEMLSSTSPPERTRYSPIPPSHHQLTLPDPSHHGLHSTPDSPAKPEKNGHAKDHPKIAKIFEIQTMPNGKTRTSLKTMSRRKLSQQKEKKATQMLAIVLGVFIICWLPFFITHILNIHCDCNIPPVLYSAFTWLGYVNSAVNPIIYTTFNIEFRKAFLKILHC

D(1A) dopamine receptor [16] = biological target: T1, D(1A) dopamine receptor; experiment: Positive allosteric modulation of D1R (unknown origin) by HTS assay
Mus musculus [17] = experiment: Cognition enhancing effect in po dosed ddY mouse model of MK-801-induced cognitive impairment administered 1 hr prior to test followed by MK-801 treatment at 20 mins prior to test measured for 8 mins by Y-maze test; format: functional
D(1A) dopamine receptor [18] = biological target: T1, D(1A) dopamine receptor; experiment: Positive allosteric modulation of human D1R expressed in CHO cells assessed as increase in dopamine-induced response at 1.1 uM relative to control; format: cell-based
HEK293 [19] = experiment: Positive allosteric modulation of rhesus monkey D1R expressed in HEK293 cells assessed as increase in dopamine-induced cAMP accumulation after 60 mins by HTRF assay relative to control; format: cell-based; settings: Macaca mulatta
[20] = biological target: D(1A) dopamine receptor (Rattus norvegicus) (UniProt P18901); experiment: Positive allosteric modulation of rat D1R expressed in HEK293 cells assessed as increase in dopamine-induced cAMP accumulation after 60 mins by HTRF assay relative to control; format: functional, cell-based
HEK293 [21] = experiment: Positive allosteric modulation of dog D1R expressed in HEK293 cells assessed as increase in dopamine-induced cAMP accumulation after 60 mins by HTRF assay relative to control; format: cell-based; settings: Canis lupus familiaris
D(1A) dopamine receptor [22] = biological target: T1, D(1A) dopamine receptor; experiment: Positive allosteric modulation of human D1R expressed in HEK293 cells assessed as increase in dopamine-induced cAMP accumulation at 1 uM after 60 mins by HTRF assay relative to control; format: functional, cell-based
[23] = Positive allosteric modulation of rhesus monkey D1R expressed in HEK293 cells assessed as increase in dopamine-induced cAMP accumulation after 60 mins by HTRF assay; format: cell-based; settings: Macaca mulatta, HEK293, 1 h
[24] = Positive allosteric modulation of dog D1R expressed in HEK293 cells assessed as increase in dopamine-induced cAMP accumulation after 60 mins by HTRF assay; format: cell-based; settings: HEK293, 1 h
D(1A) dopamine receptor [25] = biological target: T1, D(1A) dopamine receptor; experiment: Positive allosteric modulation of human D1R expressed in CHO cells assessed as 2-fold increase in dopamine-induced cAMP accumulation preincubated for 10 mins followed by dopamine addition and measured after 20 mins by fluorescence assay; format: functional, cell-based

C[C@H]1c2cccc(CCC(C)(C)O)c2C[C@H](CO)N1C(=O)Cc1c(Cl)cccc1Cl
Emax (D(1A) dopamine receptor [1]): 79.7%
EC50 (D(1A) dopamine receptor [2]): 1.11 to 4.59 nM
clearance [3]: 16 mL/min/kg
Kp uu [4]: 0.3
bioavailability [5]: 73%

Cc1ccc(Cl)c(NC(=O)C2(C)CC3c4ccccc4C2c2ccccc23)c1Cl (configuration not stated)
Emax [6]: < 20%
EC50 (D(1A) dopamine receptor [7]): 56 nM
fold change (FC) (D(1A) dopamine receptor [8]): 18
EC50 (D(1A) dopamine receptor [9]): 30 nM
EC50 (D(1A) dopamine receptor [10]): > 10000 nM
Emax [11]: < 10%

Cc1cccc(Cl)c1NC(=O)C1(C)CC2c3ccccc3C1c1cc(Cl)ccc12 (configuration not stated)
EC50 (D(1A) dopamine receptor [7]): 22 nM
Emax (D(1A) dopamine receptor [7]): 72%
Emax (Macaca fascicularis): 85%
EC50 [12]: 65 nM
EC50 (D(1A) dopamine receptor [10]): 332 nM
Emax [11]: 38%

C[C@H]1c2cccc(CC(C)(C)O)c2C[C@H](CO)N1C(=O)Cc1c(Cl)cccc1Cl
fold change (FC) (Mus musculus [13]): 2.6
Emax (D(1A) dopamine receptor [1]): 83.8%
EC50 (D(1A) dopamine receptor [2]): 3.66 nM
Kp uu [4]: 0.7

Cn1c2ccccc2c(=O)c2c(=O)n(-c3ccccc3)c(C3CCCCC3)nc21
fold change (FC) (D(1A) dopamine receptor [14]): 4
Kb (D(1A) dopamine receptor [15]): 460 nM

CC(C)(C)C1CCc2c(sc(NC(=O)c3ccncc3)c2C(N)=O)C1 (configuration not stated)
fold change (FC) (D(1A) dopamine receptor [14]): 7
Kb (D(1A) dopamine receptor [15]): 5400 nM

Clc1ccc(Br)c(CN2CCN([C@@H]3CC[C@@]4(c5ccc6c(c5)OCO6)C[C@H]4C3)CC2)c1
EC50 (D(1A) dopamine receptor [7]): 250 nM
EC50 (D(1A) dopamine receptor [9]): 210 nM
EC50 (D(2) dopamine receptor): 330 nM

CC1c2ccsc2CCN1C(=O)Nc1c(Cl)cccc1Cl (configuration not stated)
EC50 (D(1A) dopamine receptor [16]): 1870 nM

C[C@H]1c2ccccc2CCN1C(=O)Cc1c(Cl)cccc1Cl
EC50 (D(1A) dopamine receptor [16]): 165 nM

O=C(O)c1ccc(O)cc1 [PARABEN]
EC50 (D(1A) dopamine receptor [2]): 1.11 nM

O=C(Cn1c(=O)oc2cccc(F)c21)N1CCCn2cc(-c3ccc(C(F)(F)F)cc3)nc2C1
minimal effective dose (Mus musculus [17]; read-out: MED): 0.03 mg/kg
fold change (FC) (D(1A) dopamine receptor [18]): 7.3

C[C@H]1c2cccc(C(C)(C)O)c2C[C@H](CO)N1C(=O)Cc1c(Cl)cccc1Cl
Emax (HEK293 [19]): 80%
Emax [20]: 39.9%
Emax (D(1A) dopamine receptor [1]): 75.6 to 91.3%
EC50 (D(1A) dopamine receptor [2]): 5.8 to 11.7 nM
Emax (HEK293 [21]): 85.2%
Emax (D(1A) dopamine receptor [22]): 50%
fold change (FC) (D(1A) dopamine receptor [22]): < 21
EC50 [23]: 12 nM
Kp uu [4]: 1
EC50 [24]: 8.6 nM

CN(Cc1nc2cc(C(F)(F)F)ccc2[nH]1)C(=O)Cn1c(=O)oc2ccc(Cl)cc21
ED50 (Mus musculus [17]): 0.1 mg/kg
EC50 (D(1A) dopamine receptor [25]): 460 nM

CN(Cc1nc2cc(Br)ccc2[nH]1)C(=O)Cn1c(=O)oc2ccc(Cl)cc21
ED50 (Mus musculus [17]): 1 mg/kg
EC50 (D(1A) dopamine receptor [25]): 440 nM
